Assay results as given in PMC10648875 (Antimicrobial Agents and Chemotherapy, 2023).
Converted amounts (≈) assume the structure as drawn. “And” between values parts separate entries of the source, which are not always exact repeats. Equal values may be shown once. Read-outs that look alike come from different tables or passages of the source.

Experiments:
[1] = test system: PAM4743 producing CTX-M-15; test: MIC, engineered isogenic strain; assay type: cell-based, P. aeruginosa; details: CTX-M-15, class A; BLIs at fixed 4 µg/mL
PAM4876 producing OXA-72 = test: MIC, engineered isogenic strain; assay type: cell-based, P. aeruginosa; details: OXA-72, class D; BLIs at fixed 4 µg/mL
PAM4887 producing IMP-1 = test: MIC, engineered isogenic strain; assay type: cell-based, P. aeruginosa; details: IMP-1, class B; BLIs at fixed 4 µg/mL
PAM4908 producing VEB-1 = test: MIC, engineered isogenic strain; assay type: cell-based, P. aeruginosa; details: VEB-1, class A; BLIs at fixed 4 µg/mL
PAM4879 producing CcrA = test: MIC, engineered isogenic strain; assay type: cell-based, P. aeruginosa; details: class B, BLIs at fixed 4 µg/mL
[2] = test system: K. pneumoniae ATCC BAA-2814 (KP1074), KPC-3; test: MIC, reference strain; assay type: cell-based; details: for MIC: KPC-3, BLI at the fixed concentration in brackets; for MIC (number of observations): Table S1, repeated QC testing
Procedure: (§1) Other BL/BLI combinations were tested at their recommended BLI concentrations. MIC values for the partner antibiotics and BLIs alone were also determined (Table 2; Table S1). All investigational and marketed BLIs enhanced the potency of antibiotics according to their spectrum of inhibition. MIC values against CLSI-approved QC strains were within acceptable ranges for drugs and combinations tested (Table 3).
(§2) Isolates were tested for antimicrobial susceptibility using the broth microdilution methodology per CLSI M07 (2018) guidelines ([40]). JMI Laboratories produced frozen-form 96-well panels with cation-adjusted Mueller-Hinton broth as the testing medium. Current CLSI quality assurance practices were followed when performing the susceptibility tests. MIC values were validated by concurrently testing the following CLSI-recommended ([27]) QC reference strains: E. coli NCTC 13353 (CTX-M-15), Klebsiella pneumoniae ATCC BAA-2814 (KPC-3), Klebsiella pneumoniae ATCC BAA-1705 (KPC-2), and K. pneumoniae ATCC 700603 (SHV-18). The inoculum density during susceptibility testing was monitored by bacterial colony counts. Where applicable, QC ranges for tested reference strains were those approved or published by the CLSI ([27]).

[3] = test system: K. pneumoniae ATCC BAA-1705 (KPM1123), KPC-2; test: MIC, reference strain; assay type: cell-based; details: for MIC: KPC-2, BLI at the fixed concentration in brackets; for MIC (number of observations): Table S1, repeated QC testing
Procedure: as §1, §2

[4] = test system: E. coli CDC 0069 (EC1106), NDM-1; test: MIC, reference strain; assay type: cell-based; details: BLI at the fixed concentration in brackets
Procedure: as §1, §2

[5] = test system: K. pneumoniae CDC 0135 (KP1291), VIM-1; test: MIC, reference strain; assay type: cell-based; details: BLI at the fixed concentration in brackets
Procedure: as §1, §2

[6] = test system: Klebsiella pneumoniae ATCC 700603 (KPM2881), SHV-18; test: MIC, reference strain; assay type: cell-based; details: for MIC: SHV-18, BLI at the fixed concentration in brackets; for MIC (number of observations): Table S1, repeated QC testing
Procedure: as §1, §2

PAM4689 producing KPC-3 = test: MIC, engineered isogenic strain; assay type: cell-based, P. aeruginosa; details: KPC-3, class A; BLIs at fixed 4 µg/mL
[7] = test system: Escherichia coli NCTC 13353 (ECM7514), CTX-M-15; test: MIC, reference strain; assay type: cell-based; details: for MIC: CTX-M-15, BLI at the fixed concentration in brackets; for MIC (number of observations): Table S1, repeated QC testing
Procedure: as §1
as §2, with “([27]). Meropenem was purchased from Carbosynth; ceftolozane was synthesized at Acme Bioscience, Palo Alto, CA, USA; all other antibiotics were from Sigma Aldrich. Xeruborbactam was synthesized at Qpex Biopharma, San Diego, CA, USA. Avibactam was purchased from eNovation, Chemicals LLC, Bridgewater, NJ, USA. Vaborbactam was synthesized at The Medicines Company, San Diego, CA. Relebactam, taniborbactam, and […] were synthesized at Acme Bioscience.” for “([27]).”

PAM4175 (no β-lactamase) = test: MIC, engineered isogenic strain; assay type: cell-based, P. aeruginosa; details: BLIs at fixed 4 µg/mL
[8] = test system: P. aeruginosa BAA-3197 (PA5257), KPC-2; test: MIC, reference strain; assay type: cell-based; details: for MIC: KPC-2, BLI at the fixed concentration in brackets; for MIC (number of observations): Table S1, repeated QC testing
PAM4883 producing GIM-1 = test: MIC, engineered isogenic strain; assay type: cell-based, P. aeruginosa; details: GIM-1, class B; BLIs at fixed 4 µg/mL
[9] = test system: surveillance isolates of carbapenem-resistant strains of Enterobacterales; test: MIC testing of SENTRY surveillance CRE isolates (Table 4, Table S4); assay type: cell-based; details: for % Inhibited: at ≤8 µg/mL β-lactam (IMP/REL ≤1/4, MEM/VAB ≤4/8 (≤8/8) µg/mL), footnote b
[10] = test system: PAM4840 producing OXY-6–2; test: MIC, engineered isogenic strain; assay type: cell-based, P. aeruginosa; details: OXY-6–2, class A; BLIs at fixed 4 µg/mL
[11] = Klebsiella pneumoniae, ATCCBAA2814, read-out: MIC
[12] = Klebsiella pneumoniae, ATCCBAA1705, read-out: MIC
[13] = Escherichia coli, read-out: MIC
[14] = Klebsiella pneumoniae, read-out: MIC
[15] = Klebsiella pneumoniae, ATCC700603, read-out: MIC
[16] = Escherichia coli, NCTC13353, read-out: MIC
[17] = Pseudomonas aeruginosa, BAA3197, read-out: MIC
[18] = All surveillance CRE, read-out: MIC50
[19] = All surveillance CRE, read-out: MIC90
[20] = Non-CP CRE subset, read-out: MIC50
[21] = Non-CP CRE subset, read-out: MIC90

CO/N=C(\C(=O)N[C@@H]1C(=O)N2C(C(=O)[O-])=C(C[N+]3(C)CCCC3)CS[C@H]12)c1csc(N)n1 [FEP, cefepime]
MIC [1]: > 64 µg/mL
MIC (PAM4876 producing OXA-72): 2 µg/mL (≈ 4.16 µM)
MIC (PAM4887 producing IMP-1): 64 µg/mL (≈ 133 µM)
MIC (PAM4908 producing VEB-1): > 64 µg/mL
MIC (PAM4879 producing CcrA): 16 µg/mL (≈ 33.3 µM)
MIC [2, 11]: > 64 µg/mL
MIC (number of observations) [2]: > 32 µg/mL
MIC [3, 12]: 32 µg/mL
MIC (number of observations) [3]: 32 (40)->32(6) µg/ml
MIC [4, 13]: 64 µg/mL
MIC [5, 14]: > 64 µg/mL
MIC [6, 15]: 1 µg/mL
MIC (number of observations) [6]: 0.5(1)-1(8)-2(1)-4(1) µg/ml
MIC (PAM4689 producing KPC-3): > 64 µg/mL
MIC [7, 16]: > 64 µg/mL
MIC (number of observations) [7]: 32 (1)-64(5)->128 (10) µg/ml
MIC (PAM4175 (no β-lactamase)): 0.25 µg/mL (≈ 0.52 µM)
MIC [8, 17]: > 64 µg/mL
MIC (number of observations) [8]: > 128 µg/mL
MIC (PAM4883 producing GIM-1): 8 µg/mL (≈ 16.6 µM)
MIC50 [9]: > 32 µg/mL
MIC90 [9]: > 32 µg/mL
MIC50 [9, 18]: > 32 µg/mL
MIC90 [9, 19]: > 32 µg/mL
% Inhibited ([9]; KPC subset): 11.70%
MIC50 ([9]; KPC subset, read-out: MIC50): > 32 µg/mL
MIC90 ([9]; KPC subset, read-out: MIC90): > 32 µg/mL
% Inhibited ([9]; MBL subset): 0.00%
MIC50 ([9]; MBL subset, read-out: MIC50): > 32 µg/mL
MIC90 ([9]; MBL subset, read-out: MIC90): > 32 µg/mL
% Inhibited ([9]; NDM subset): 0.00%
MIC50 ([9]; NDM subset, read-out: MIC50): > 32 µg/mL
MIC90 ([9]; NDM subset, read-out: MIC90): > 32 µg/mL
% Inhibited ([9]; No MBL subset): 15.50%
MIC50 ([9]; No MBL subset, read-out: MIC50): > 32 µg/mL
MIC90 ([9]; No MBL subset, read-out: MIC90): > 32 µg/mL
% Inhibited ([9]; Non-CP CRE subset): 15.20%
MIC50 [9, 20]: > 32 µg/mL
MIC90 [9, 21]: > 32 µg/mL
% Inhibited ([9]; OXA-48 subset): 21.50%
MIC50 ([9]; OXA-48 subset, read-out: MIC50): > 32 µg/mL
MIC90 ([9]; OXA-48 subset, read-out: MIC90): > 32 µg/mL
% Inhibited ([9]; VIM subset): 0.00%
MIC50 ([9]; VIM subset, read-out: MIC50): 32 µg/mL (≈ 66.6 µM)
MIC90 ([9]; VIM subset, read-out: MIC90): > 32 µg/mL
MIC [10]: 8 µg/mL (≈ 16.6 µM)

C[C@@H](O)[C@H]1C(=O)N2C(C(=O)O)=C(S[C@@H]3CN[C@H](C(=O)N(C)C)C3)[C@H](C)[C@H]12 [MEM, meropenem]
MIC [1]: 0.25 µg/mL (≈ 0.652 µM)
MIC (PAM4876 producing OXA-72): 2 µg/mL (≈ 5.22 µM)
MIC (PAM4887 producing IMP-1): 4 µg/mL (≈ 10.4 µM)
MIC (PAM4908 producing VEB-1): 0.5 µg/mL (≈ 1.3 µM)
MIC (PAM4879 producing CcrA): 2 µg/mL (≈ 5.22 µM)
MIC [2, 11]: > 64 µg/mL
MIC (number of observations) [2]: > 32 µg/mL
MIC [3, 12]: 32 µg/mL
MIC (number of observations) [3]: 8 (2)-16 (16)-32 (28) µg/ml
MIC [4, 13]: 32 µg/mL
MIC [5, 14]: 8 µg/mL
MIC [6, 15]: ≤ 0.03 µg/mL
MIC (PAM4689 producing KPC-3): 64 µg/mL (≈ 167 µM)
MIC [7, 16]: ≤ 0.03 µg/mL
MIC (PAM4175 (no β-lactamase)): 0.125 ^ a
MIC [8, 17]: > 64 µg/mL
MIC (PAM4883 producing GIM-1): 32 µg/mL (≈ 83.4 µM)
MIC90 [9]: 16 and > 32
% Inhibited ([9]; All surveillance CRE): 30.20%
MIC50 [9, 18]: 32 µg/mL (≈ 83.4 µM)
MIC90 [9, 19]: > 32 µg/mL
% Inhibited ([9]; KPC subset): 29.50%
MIC50 ([9]; KPC subset, read-out: MIC50): 32 µg/mL (≈ 83.4 µM)
MIC90 ([9]; KPC subset, read-out: MIC90): > 32 µg/mL
% Inhibited ([9]; MBL subset): 9.00%
MIC50 ([9]; MBL subset, read-out: MIC50): > 32 µg/mL
MIC90 ([9]; MBL subset, read-out: MIC90): > 32 µg/mL
% Inhibited ([9]; NDM subset): 6.30%
MIC50 ([9]; NDM subset, read-out: MIC50): > 32 µg/mL
MIC90 ([9]; NDM subset, read-out: MIC90): > 32 µg/mL
% Inhibited ([9]; No MBL subset): 39.40%
MIC50 ([9]; No MBL subset, read-out: MIC50): 16 µg/mL (≈ 41.7 µM)
MIC90 ([9]; No MBL subset, read-out: MIC90): > 32 µg/mL
% Inhibited ([9]; Non-CP CRE subset): 81.80%
MIC50 [9, 20]: 8 µg/mL (≈ 20.9 µM)
MIC90 [9, 21]: 16 µg/mL (≈ 41.7 µM)
% Inhibited ([9]; OXA-48 subset): 37.20%
MIC50 ([9]; OXA-48 subset, read-out: MIC50): 32 µg/mL (≈ 83.4 µM)
MIC90 ([9]; OXA-48 subset, read-out: MIC90): > 32 µg/mL
% Inhibited ([9]; VIM subset): 35.00%
MIC50 ([9]; VIM subset, read-out: MIC50): 16 µg/mL (≈ 41.7 µM)
MIC90 ([9]; VIM subset, read-out: MIC90): > 32 µg/mL
MIC [10]: 0.25 µg/mL (≈ 0.652 µM)

NCCN[C@H]1CC[C@H](CC(=O)N[C@H]2Cc3cccc(C(=O)O)c3OB2O)CC1 [Taniborbactam, taniborbactam]
MIC [2]: >64 µg/mL
MIC [3]: >64 µg/mL
MIC [4]: >64 µg/mL
MIC [5]: >64 µg/mL
MIC [6]: >64 µg/mL
MIC [7]: >64 µg/mL
MIC [8]: >64 µg/mL

O=C(O)c1c(F)ccc2c1OB(O)[C@@H]1C[C@H]21 [Xeruborbactam, xeruborbactam]
MIC [2, 11]: 32 µg/mL
MIC (number of observations) [2]: 16 (20)-32 (28) µg/ml
MIC [3, 12]: 16 µg/mL
MIC (number of observations) [3]: 8 (2)-16 (44)-32 (2) µg/ml
MIC [4, 13]: 16 µg/mL
MIC [5, 14]: 16 µg/mL
MIC [6, 15]: 16 µg/mL
MIC (number of observations) [6]: 8 (7)-16 (4) µg/ml
MIC [7, 16]: 8 µg/mL
MIC (number of observations) [7]: 4 (1) - 8 (8) - 16 (2) µg/ml
MIC [8, 17]: > 64 µg/mL
MIC (number of observations) [8]: 64 (1)- >128 (13) µg/ml
% of isolates with xeruborbactam MIC of ≤8 µg/mL [9]: 13.3%
MIC50 ([9]; read-out: MIC50 for xeruborbactam alone, range over all the subsets of isolates): 16 to 32 µg/mL
% of isolates without significant growth inhibition at 4 µg/mL ([9]; xeruborbactam alone at 4 µg/mL): > 99%
